ChEMBL document CHEMBL5715260, “Selectivity Literature for EUbOPEN Chemogenomic Library” (2024)
One block for each molecule: values may come before it.

Key:
[1] = target: T1, Hepatocyte nuclear factor 4-alpha (Homo sapiens) (UniProt P41235); experiment: Selectivity interaction (Reporter gene assay) EUB0001482aCl HNF4A; set-up: recommended concentration 10 uM
T1 sequence (whole entry): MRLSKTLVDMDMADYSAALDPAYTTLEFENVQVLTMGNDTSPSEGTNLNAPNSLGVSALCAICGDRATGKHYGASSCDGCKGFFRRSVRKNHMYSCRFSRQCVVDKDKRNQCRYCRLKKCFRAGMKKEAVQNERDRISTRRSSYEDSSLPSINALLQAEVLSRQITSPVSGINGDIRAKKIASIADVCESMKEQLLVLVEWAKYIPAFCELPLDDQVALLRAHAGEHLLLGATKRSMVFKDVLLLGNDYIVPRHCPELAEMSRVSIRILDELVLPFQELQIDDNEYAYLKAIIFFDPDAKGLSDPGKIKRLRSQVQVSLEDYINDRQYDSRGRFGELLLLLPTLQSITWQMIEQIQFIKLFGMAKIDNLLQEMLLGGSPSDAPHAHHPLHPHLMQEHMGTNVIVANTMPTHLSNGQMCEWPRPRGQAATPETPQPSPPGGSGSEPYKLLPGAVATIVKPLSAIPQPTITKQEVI

[2] = target: T2, Nuclear receptor subfamily 2 group C member 1 (Homo sapiens) (UniProt P13056); experiment: Selectivity interaction (Reporter gene assay) EUB0001482aCl NR2C1; set-up: recommended concentration 10 uM
T2 sequence (whole entry): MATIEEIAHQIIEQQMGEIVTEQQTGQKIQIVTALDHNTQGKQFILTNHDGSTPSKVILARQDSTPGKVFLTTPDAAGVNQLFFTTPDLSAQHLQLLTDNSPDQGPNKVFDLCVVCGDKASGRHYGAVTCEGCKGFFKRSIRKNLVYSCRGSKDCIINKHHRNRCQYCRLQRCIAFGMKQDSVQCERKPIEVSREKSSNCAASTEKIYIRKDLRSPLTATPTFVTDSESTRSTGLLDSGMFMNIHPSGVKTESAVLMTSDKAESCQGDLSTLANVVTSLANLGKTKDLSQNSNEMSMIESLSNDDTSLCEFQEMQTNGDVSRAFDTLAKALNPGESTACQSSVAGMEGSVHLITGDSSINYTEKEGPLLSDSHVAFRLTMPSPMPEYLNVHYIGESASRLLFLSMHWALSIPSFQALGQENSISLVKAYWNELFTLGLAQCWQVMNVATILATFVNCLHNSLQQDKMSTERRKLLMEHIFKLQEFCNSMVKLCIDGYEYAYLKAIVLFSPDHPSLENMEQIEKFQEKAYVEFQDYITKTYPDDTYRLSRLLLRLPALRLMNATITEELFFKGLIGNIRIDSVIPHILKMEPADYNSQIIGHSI

[3] = target: Nuclear receptor subfamily 2 group E member 1 (Homo sapiens) (UniProt Q9Y466); experiment: Selectivity interaction (Reporter gene assay) EUB0001482aCl NR2E1; set-up: recommended concentration 10 uM
Sequence of Nuclear receptor subfamily 2 group E member 1 (Homo sapiens) (Q9Y466 whole entry): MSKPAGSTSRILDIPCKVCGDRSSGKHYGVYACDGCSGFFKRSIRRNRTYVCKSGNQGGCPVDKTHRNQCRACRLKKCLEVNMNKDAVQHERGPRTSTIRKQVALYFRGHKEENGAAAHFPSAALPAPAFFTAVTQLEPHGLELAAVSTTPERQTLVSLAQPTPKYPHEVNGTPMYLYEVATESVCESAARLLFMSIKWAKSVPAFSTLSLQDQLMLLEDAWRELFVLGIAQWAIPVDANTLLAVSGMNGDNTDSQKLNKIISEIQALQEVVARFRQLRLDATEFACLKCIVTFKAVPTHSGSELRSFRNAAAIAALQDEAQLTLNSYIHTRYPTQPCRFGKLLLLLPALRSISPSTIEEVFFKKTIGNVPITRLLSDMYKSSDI

[4] = target: Nuclear receptor subfamily 4immunitygroup A member 1 (Homo sapiens) (UniProt P22736); experiment: Selectivity interaction (Reporter gene assay) EUB0001482aCl NR4A1; set-up: recommended concentration 10 uM
Sequence of Nuclear receptor subfamily 4immunitygroup A member 1 (Homo sapiens) (P22736 whole entry): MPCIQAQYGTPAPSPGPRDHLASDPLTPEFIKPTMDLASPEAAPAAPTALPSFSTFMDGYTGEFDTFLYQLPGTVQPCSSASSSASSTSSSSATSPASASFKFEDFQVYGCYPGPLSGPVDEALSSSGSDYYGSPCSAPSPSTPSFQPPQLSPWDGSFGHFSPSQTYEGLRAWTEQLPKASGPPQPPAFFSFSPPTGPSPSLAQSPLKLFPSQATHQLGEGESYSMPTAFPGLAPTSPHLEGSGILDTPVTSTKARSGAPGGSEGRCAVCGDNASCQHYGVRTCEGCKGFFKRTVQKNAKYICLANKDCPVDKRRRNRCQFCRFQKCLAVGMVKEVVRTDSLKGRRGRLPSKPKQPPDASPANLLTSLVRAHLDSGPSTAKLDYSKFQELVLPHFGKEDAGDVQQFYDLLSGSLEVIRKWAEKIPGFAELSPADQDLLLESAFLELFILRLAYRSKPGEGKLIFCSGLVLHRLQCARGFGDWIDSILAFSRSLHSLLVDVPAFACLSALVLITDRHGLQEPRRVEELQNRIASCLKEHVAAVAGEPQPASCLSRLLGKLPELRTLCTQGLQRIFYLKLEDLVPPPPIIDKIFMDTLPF

[5] = target: Steroidogenic factor 1 (Homo sapiens) (UniProt Q13285); experiment: Selectivity interaction (Reporter gene assay) EUB0001482aCl NR5A1; set-up: recommended concentration 10 uM
Sequence of Steroidogenic factor 1 (Homo sapiens) (Q13285 whole entry): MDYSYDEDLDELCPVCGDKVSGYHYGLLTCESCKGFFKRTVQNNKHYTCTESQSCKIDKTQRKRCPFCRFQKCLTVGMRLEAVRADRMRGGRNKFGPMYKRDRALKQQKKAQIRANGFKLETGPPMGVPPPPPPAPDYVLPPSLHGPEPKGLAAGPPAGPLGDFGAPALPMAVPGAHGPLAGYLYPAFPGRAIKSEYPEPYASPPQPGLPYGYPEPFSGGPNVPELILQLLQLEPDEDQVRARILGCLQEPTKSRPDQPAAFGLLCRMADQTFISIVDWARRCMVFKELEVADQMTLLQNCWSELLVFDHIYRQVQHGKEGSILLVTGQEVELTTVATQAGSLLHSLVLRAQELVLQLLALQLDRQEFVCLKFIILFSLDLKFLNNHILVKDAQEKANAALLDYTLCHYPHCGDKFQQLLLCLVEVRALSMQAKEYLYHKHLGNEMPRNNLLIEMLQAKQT

[6] = target: T3, Alpha trans-inducing protein (Human alphaherpesvirus 1) (UniProt A0A5J6DW59); experiment: Selectivity interaction (Reporter gene assay) EUB0001482aCl UL48; set-up: recommended concentration 10 uM
T3 sequence (A0A5J6DW59 as listed by the source): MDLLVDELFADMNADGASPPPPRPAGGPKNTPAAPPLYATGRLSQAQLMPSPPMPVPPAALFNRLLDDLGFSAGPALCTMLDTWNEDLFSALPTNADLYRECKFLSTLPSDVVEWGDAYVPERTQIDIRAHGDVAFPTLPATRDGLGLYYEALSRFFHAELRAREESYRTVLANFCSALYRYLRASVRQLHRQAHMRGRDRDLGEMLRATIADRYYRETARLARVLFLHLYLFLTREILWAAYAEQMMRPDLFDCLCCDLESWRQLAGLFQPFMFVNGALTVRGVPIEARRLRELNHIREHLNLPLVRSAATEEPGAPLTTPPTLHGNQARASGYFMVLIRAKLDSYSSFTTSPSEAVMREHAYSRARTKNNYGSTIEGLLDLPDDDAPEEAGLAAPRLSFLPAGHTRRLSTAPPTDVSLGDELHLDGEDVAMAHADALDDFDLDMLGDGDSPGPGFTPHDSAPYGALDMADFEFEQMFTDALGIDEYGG

[7] = target: T4, Retinoic acid receptor RXR-alpha (Homo sapiens) (UniProt P19793); experiment: Selectivity interaction (Reporter gene assay) EUB0001482aCl RXRA; set-up: recommended concentration 10 uM; settings: reference bexarotene 1 uM, Selectivity number of off-targets 0.0, Selectivity number of targets 1.0, Source Knowledge inhouse
T4 sequence (whole entry): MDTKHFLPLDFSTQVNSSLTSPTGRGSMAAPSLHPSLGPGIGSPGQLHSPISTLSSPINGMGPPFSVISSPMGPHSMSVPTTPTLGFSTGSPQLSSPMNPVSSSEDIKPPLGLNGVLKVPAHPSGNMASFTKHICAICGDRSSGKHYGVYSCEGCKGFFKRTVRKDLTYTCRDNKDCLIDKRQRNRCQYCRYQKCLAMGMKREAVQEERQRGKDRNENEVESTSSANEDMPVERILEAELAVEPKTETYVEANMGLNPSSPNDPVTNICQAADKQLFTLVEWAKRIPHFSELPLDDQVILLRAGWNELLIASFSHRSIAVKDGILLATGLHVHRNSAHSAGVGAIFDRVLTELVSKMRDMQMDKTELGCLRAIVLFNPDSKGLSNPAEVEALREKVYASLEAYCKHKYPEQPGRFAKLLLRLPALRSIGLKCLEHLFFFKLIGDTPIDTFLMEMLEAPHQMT

[8] = target: T1, Hepatocyte nuclear factor 4-alpha (Homo sapiens); experiment: Selectivity interaction (Reporter gene assay) EUB0001170a HNF4A; set-up: recommended concentration 1 uM
[9] = target: T2, Nuclear receptor subfamily 2 group C member 1 (Homo sapiens); experiment: Selectivity interaction (Reporter gene assay) EUB0001170a NR2C1; set-up: recommended concentration 1 uM
[10] = target: Nuclear receptor subfamily 2 group E member 1 (Homo sapiens) (UniProt Q9Y466); experiment: Selectivity interaction (Reporter gene assay) EUB0001170a NR2E1; set-up: recommended concentration 1 uM
[11] = target: Nuclear receptor subfamily 4immunitygroup A member 1 (Homo sapiens) (UniProt P22736); experiment: Selectivity interaction (Reporter gene assay) EUB0001170a NR4A1; set-up: recommended concentration 1 uM
[12] = target: Steroidogenic factor 1 (Homo sapiens) (UniProt Q13285); experiment: Selectivity interaction (Reporter gene assay) EUB0001170a NR5A1; set-up: recommended concentration 1 uM
[13] = target: T3, Alpha trans-inducing protein (Human alphaherpesvirus 1); experiment: Selectivity interaction (Reporter gene assay) EUB0001170a UL48; set-up: recommended concentration 1 uM
[14] = target: T4, Retinoic acid receptor RXR-alpha (Homo sapiens); experiment: Selectivity interaction (Reporter gene assay) EUB0001170a RXRA; set-up: recommended concentration 1 uM; settings: reference bexarotene 1 uM, Selectivity number of off-targets 0.0, Selectivity number of targets 1.0, Source Knowledge inhouse
[15] = target: T1, Hepatocyte nuclear factor 4-alpha (Homo sapiens); experiment: Selectivity interaction (Reporter gene assay) EUB0001169a HNF4A; set-up: recommended concentration 1 uM
[16] = target: T2, Nuclear receptor subfamily 2 group C member 1 (Homo sapiens); experiment: Selectivity interaction (Reporter gene assay) EUB0001169a NR2C1; set-up: recommended concentration 1 uM
[17] = target: Nuclear receptor subfamily 2 group E member 1 (Homo sapiens) (UniProt Q9Y466); experiment: Selectivity interaction (Reporter gene assay) EUB0001169a NR2E1; set-up: recommended concentration 1 uM
[18] = target: Nuclear receptor subfamily 4immunitygroup A member 1 (Homo sapiens) (UniProt P22736); experiment: Selectivity interaction (Reporter gene assay) EUB0001169a NR4A1; set-up: recommended concentration 1 uM
[19] = target: Steroidogenic factor 1 (Homo sapiens) (UniProt Q13285); experiment: Selectivity interaction (Reporter gene assay) EUB0001169a NR5A1; set-up: recommended concentration 1 uM; settings: screened at recom. conc., Selectivity number of off-targets 1.0, Selectivity number of targets 5.0, Source Knowledge inhouse
[20] = target: T3, Alpha trans-inducing protein (Human alphaherpesvirus 1); experiment: Selectivity interaction (Reporter gene assay) EUB0001169a UL48; set-up: recommended concentration 1 uM
[21] = target: T4, Retinoic acid receptor RXR-alpha (Homo sapiens); experiment: Selectivity interaction (Reporter gene assay) EUB0001169a RXRA; set-up: recommended concentration 1 uM
[22] = target: T3, Alpha trans-inducing protein (Human alphaherpesvirus 1); experiment: Selectivity interaction (Reporter gene assay) EUB0001172a UL48; set-up: recommended concentration 1 uM
[23] = target: T1, Hepatocyte nuclear factor 4-alpha (Homo sapiens); experiment: Selectivity interaction (Reporter gene assay) EUB0001477a HNF4A; set-up: recommended concentration 1 uM
[24] = target: T2, Nuclear receptor subfamily 2 group C member 1 (Homo sapiens); experiment: Selectivity interaction (Reporter gene assay) EUB0001477a NR2C1; set-up: recommended concentration 1 uM
[25] = target: Nuclear receptor subfamily 2 group E member 1 (Homo sapiens) (UniProt Q9Y466); experiment: Selectivity interaction (Reporter gene assay) EUB0001477a NR2E1; set-up: recommended concentration 1 uM
[26] = target: Nuclear receptor subfamily 4immunitygroup A member 1 (Homo sapiens) (UniProt P22736); experiment: Selectivity interaction (Reporter gene assay) EUB0001477a NR4A1; set-up: recommended concentration 1 uM
[27] = target: Steroidogenic factor 1 (Homo sapiens) (UniProt Q13285); experiment: Selectivity interaction (Reporter gene assay) EUB0001477a NR5A1; set-up: recommended concentration 1 uM
[28] = target: T3, Alpha trans-inducing protein (Human alphaherpesvirus 1); experiment: Selectivity interaction (Reporter gene assay) EUB0001477a UL48; set-up: recommended concentration 1 uM
[29] = target: T4, Retinoic acid receptor RXR-alpha (Homo sapiens); experiment: Selectivity interaction (Reporter gene assay) EUB0001477a RXRA; set-up: recommended concentration 1 uM; settings: reference bexarotene 1 uM, Selectivity number of off-targets 0.0, Selectivity number of targets 1.0, Source Knowledge inhouse

SMILES: CC(C)C(=O)N1CCC(c2cn(C)c3ncc(NC(=O)c4cccc(C#N)c4)c(C(F)(F)F)c23)CC1
Fold activation [8]: 1.08
Remaining activity [9]: 0.916
Remaining activity [10]: 0.839
Fold activation [11]: 1.14
Fold activation [12]: 1.12
P-value [13]: 0.00111
Relative activation [14]: 0.336%

SMILES: O=C(O)c1cc(F)c2nc(N3[C@@H]4CC[C@H]3C[C@@H](OCc3c(-c5ccccc5OC(F)(F)F)noc3C3CC3)C4)sc2c1
Remaining activity [15]: 0.655
Fold activation [16]: 1.28
Remaining activity [17]: 0.961
Remaining activity [18]: 0.696
Remaining activity [19]: 0.47
P-value [20]: 0.00151
Relative activation [21]: 0.815%

SMILES: Clc1ccc(-c2nc3sccn3c2/C=N/OCc2ccc(Cl)c(Cl)c2)cc1
Fold activation [23]: 1.11
Fold activation [24]: 1.23
Remaining activity [25]: 0.989
Remaining activity [26]: 0.934
Fold activation [27]: 1.19
P-value [28]: 0.000158
Relative activation [29]: 0.637%

Second part, the molecule after the results:

Fold activation [1]: 1.02
Fold activation [2]: 1.42
Fold activation [3]: 1.41
Fold activation [4]: 1.25
Fold activation [5]: 1.11
P-value [6]: 0.0185
Relative activation [7]: 0.905%
SMILES: C[C@H](CCOc1cccc(CC(=O)O)c1)N(Cc1cccc(C(F)(F)F)c1Cl)CC(c1ccccc1)c1ccccc1

P-value [22]: 4.9e-12
SMILES: CC(C)(C[C@H]1CN(S(=O)(=O)c2cccc(C(F)(F)F)c2)c2cc(-c3cc(F)cc(OC(F)F)c3)ccc2O1)C(=O)O
